Laboratory results published in PMC11358582, “Discovery of a potential bladder cancer inhibitor CHNQD-01281 by regulating EGFR and promoting infiltration of cytotoxic T cells” (Marine Life Science & Technology, 2024).

Assays:
Assay type in all cases: cell-based, human
[1] = system: J82 cell line; experiment: Cell apoptosis analysis (Annexin V); settings: J82, 0.32 µmol/L (control 4.15%)
Method: (§1) T24 and J82 cell lines were seeded in 6-well plates (3 × 10^5 cells/well) and treated with different concentrations of CHNQD-01281 or DMSO. Muse™ Annexin V and Dead Cell assay kit (Muse TM Cell Analyzer, Millipore (catalog no. MCH100105)) was used to determine the cell apoptosis by Muse cell analyzer (Millipore, Billerica, MA, USA).
(§2) Furthermore, treatment with CHNQD-01281 induced a dose-dependent increase in the total apoptosis of T24 and J82 cell lines. […] Meanwhile, the expression of apoptosis-related proteins cleaved PARP and cleaved caspase-3 were detected by Western blot. […] Therefore, CHNQD-01281 can induce DNA damage to arrest the cell cycle at the G0/G1 phase, affect the expression of DNA damage repair enzyme PARP, and finally induce apoptosis of bladder cancer cell lines.

[2] = system: T24 cell line; experiment: Cell apoptosis analysis (Annexin V); settings: T24, 0.32 µmol/L (control 3.45%)
Method: as §1, §2

[3] = system: HCT-116 cells; experiment: MTT cell proliferation assay
Method: (§3) Human tumor cell lines Eca-109, BEL-7402, BxPC-3, HCT-116, HT-29, T24, HCT-8, SGC-7901, DLD-1, TE-1, BT-549, MGC-803 and human hepatocyte cell line L-02 were cultured in Roswell Park Memorial Institute (RPMI) 1640. HuH-7 and SW-480 were cultured in Dulbecco’s modified Eagle’s medium (DMEM). J82, HepG2, Hela, U87 were cultured in Minimum Essential Medium (MEM). Murine bladder cancer cell line, MB49, was cultured in DMEM. The above-mentioned culture medium was provided by GIBCO (Grand Island, USA), contained 10% fetal bovine serum (PAN, Germany), 10 mg/mL of streptomycin, and 10 kU/mL penicillin (Beyotime, China).
(§4) Cells were seeded in 96-well plates and incubated with indicated concentrations of CHNQD-01281 for indicated periods. Next, medium was discarded and MTT (5 mg/mL) was added to each well. The cells were incubated at 37 °C for another 4 h. After that, supernatant was discarded, and DMSO was added and incubated at 37 °C for 15 min. Finally, absorbance was measured at 570 nm (Molecular Devices, USA).
(§5) To investigate whether CHNQD-01281 had selective inhibitory effect on cancer cell lines, a variety of human tumor cell lines were assayed by MTT, such as bladder cancer cell lines (J82 and T24), colorectal cancer cell lines (HCT-116, HT-29, HCT-8, DLD-1 and SW-480), cervical cancer cell line (Hela), esophageal cancer cell lines (TE-1 and Eca-109), breast cancer cell line (BT-549), gastric carcinoma cell lines (MGC-803 and SGC-7901), glioma cell line (U87), pancreatic carcinoma cell line (BxPC-3) and hepatocellular carcinoma cell lines (Hep G2, BEL-7402 and HuH-7) (Fig. 2A).

[4] = system: BT-549 cells; experiment: MTT cell proliferation assay
Method: as §3, §4, §5

[5] = system: T24 cells; experiment: MTT cell proliferation assay
Method: as §3, §4, §5

[6] = system: Hep G2 cells; experiment: MTT cell proliferation assay
Method: as §3, §4, §5

[7] = system: HT-29 cells; experiment: MTT cell proliferation assay
Method: as §3, §4, §5

[8] = system: SW-480 cells; experiment: MTT cell proliferation assay
Method: as §3, §4, §5

[9] = system: HuH-7 cells; experiment: MTT cell proliferation assay
Method: as §3, §4, §5

[10] = system: BxPC-3 cells; experiment: MTT cell proliferation assay
Method: as §3, §4, §5

[11] = system: SGC-7901 cells; experiment: MTT cell proliferation assay
Method: as §3, §4, §5

[12] = system: MGC-803 cells; experiment: MTT cell proliferation assay
Method: as §3, §4, §5

[13] = system: p-ERK/ERK; experiment: Western blot of EGFR downstream proteins; settings: 0.16 µmol/L
Method: (§6) T24 and J82 cell lines were lysed in protein lysis buffer, which included phosphatase inhibitors and a cocktail of protease inhibitors. A BCA kit (SparkJade, China) was used to determine the total protein concentration. After protein denaturation, SDS-PAGE electrophoresis was performed and the protein transferred from the gel to a PVDF membrane (Millipore, USA). Then primary antibodies against cleaved caspases-3, cleaved PARP, AKT, phosphorylated AKT, ERK1/2, phosphorylated ERK1/2, EGFR, mTOR, phosphorylated mTOR and Tubulin (CST, USA) were diluted at 1:1000 at 4 °C overnight. The membranes were then washed and incubated with secondary antibodies dissolved in 5% nonfat milk. A chemiluminescence imaging system was used to detect the signals (Tanon, China).
(§7) EGFR is overexpressed in malignant urothelial cells, which is associated with the deterioration, invasiveness and metastasis of tumors. It is a potential therapeutic target for bladder carcinoma. Therefore, we examined the expression of EGFR and its downstream proteins after treating bladder cancer cells with CHNQD-01281 (Supplementary Fig. S11). […] Taken together, CHNQD-01281 inhibited the proliferation of bladder cancer cells and induced apoptosis through EGFR/PI3K/AKT and EGFR/ERK pathways to exert antitumor effects.

[14] = system: p-AKT/AKT; experiment: Western blot of EGFR downstream proteins; settings: 0.16 µmol/L
Method: as §6, §7

[15] = system: p-mTOR/mTOR; experiment: Western blot of EGFR downstream proteins; settings: 0.16 µmol/L
Method: as §6, §7

In the case of `C[C@H]1CCC/C=C/[C@@H]2C[C@H](O)C[C@H]2[C@H](OC(=O)/C=C/c2cccnc2)/C=C/C(=O)O1` [CHNQD-01281, Brefeldin A 4-O-3-(pyridin-3-yl) acrylate], the total apoptotic cells [1] is reported as 27.9%, the total apoptotic cells [2] is reported as 27.8% and the IC90 ([3]; Homo sapiens, HCT-116, MTT) is reported as 640 nM. The IC50 ([3]; Homo sapiens, HCT-116, MTT, 72 h) was 350 nM, the “SI (selectivity index)” value ([3]; L-02 versus HCT-116) was 3.31 and the IC90 ([4]; Homo sapiens, BT-549, MTT) was > 1000 nM. For the same molecule, the IC50 ([4]; Homo sapiens, BT-549, MTT, 72 h) was 640 nM, the “SI (selectivity index)” value ([4]; L-02 versus BT-549) was 1.81 and the inhibition at 0.125 µM ([5]; Homo sapiens, T-24, T24, 0.125 µmol/L, 120 h, read-out: inhibition of growth) was ~100%. For the same molecule, the inhibition at 1 µM ([5]; Homo sapiens, T-24, T24, 1 µmol/L (highest concentration), 24 h) was < 50%, the IC90 ([5]; Homo sapiens, T-24, T24, MTT) was 300 nM and the IC50 ([5]; Homo sapiens, T-24, T24, MTT, 72 h) was 79 nM. For the same molecule, the “SI (selectivity index)” value ([5]; L-02 versus T24) was 14.68, the IC90 ([6]; Homo sapiens, HepG2, Hep G2, MTT) was > 1000 nM and the IC50 ([6]; Homo sapiens, HepG2, Hep G2, MTT, 72 h) was 420 nM. The “SI (selectivity index)” value ([6]; L-02 versus Hep G2) was 2.76, the IC90 ([7]; Homo sapiens, HT-29, MTT) was > 1000 nM and the IC50 ([7]; Homo sapiens, HT-29, MTT, 72 h) was 370 nM. For the same molecule, the “SI (selectivity index)” value ([7]; L-02 versus HT-29) was 3.14, the IC90 ([8]; Homo sapiens, SW480, SW-480, MTT) was > 1000 nM and the IC50 ([8]; Homo sapiens, SW480, SW-480, MTT, 72 h) was 730 nM. For the same molecule, the “SI (selectivity index)” value ([8]; L-02 versus SW-480) was 1.59, the IC90 ([9]; Homo sapiens, HuH-7, MTT) was > 1000 nM and the IC50 ([9]; Homo sapiens, HuH-7, MTT, 72 h) was 510 nM. For the same molecule, the “SI (selectivity index)” value ([9]; L-02 versus HuH-7) was 2.27, the IC90 ([10]; Homo sapiens, BxPC-3, MTT) was 350 nM and the IC50 ([10]; Homo sapiens, BxPC-3, MTT, 72 h) was 180 nM. For the same molecule, the “SI (selectivity index)” value ([10]; L-02 versus BxPC-3) was 6.44, the IC90 ([11]; Homo sapiens, SGC-7901, MTT) was 750 nM and the IC50 ([11]; Homo sapiens, SGC-7901, MTT, 72 h) was 340 nM. For the same molecule, the “SI (selectivity index)” value ([11]; L-02 versus SGC-7901) was 3.41, the IC90 ([12]; Homo sapiens, MGC-803, MTT) was > 1000 nM and the IC50 ([12]; Homo sapiens, MGC-803, MTT, 72 h) was 690 nM. The “SI (selectivity index)” value ([12]; L-02 versus MGC-803) was 1.68, the “decrease of p-ERK/ERK expression level” value [13] was 96.95% and the “decrease of p-AKT/AKT expression level” value [14] was 99.96%. The “decrease of p-mTOR/mTOR expression level” value [15] was 60.36%.
